Here are results for 3 compounds from patent US9388123B2, “LSD1-selective inhibitor having lysine structure” (KYOTO UNIVERSITY, priority 2012, dated 2016).

Each structure is given as a SMILES string. Structures can show the parent of a compound that is named as a salt.

One data set concerns HeLa cells. Kind of data set: Cancer cell growth inhibition evaluation (MTT assay). In kind it is cell-based. The note with it: Homo sapiens, 48 h, read-out: GI50 (μM) HeLa. On the procedure:
(§1) Evaluation was performed by measuring the inhibitory activities of a compound against the growth of a human cervical cancer-derived cell line, HeLa cells, and a human neuroblastoma cell line, SH-SY5Y cells. Details thereof are shown below. […] This assay involves, as a principle thereof, measuring an absorbance at the time of color development through a reaction of NADH, which is contained in the mitochondria of viable cells, and MTT to measure the amount of NADH. The assay was performed by the following procedure. […] After the culture, a compound was added. Then, the cells were cultured for an additional 48 hours, and then 5 mg/ml MTT liquid was added at 10 μl per well. The cells were cultured for an additional 3 hours in a CO2 incubator. A solubilization solution (0.04 mol/l hydrochloric acid-isopropanol) was added at 100 μl per well and the mixture was vigorously vortexed. After that, an absorbance at 560 nm was measured with Fusion-aFP (manufactured by PerkinElmer) and the amount of viable cells was determined.

The subject of a further data set is SH-SY5Y cells. Described as above. The note with it: Homo sapiens, read-out: GI50 (μM) SH-SY5Y. Format: cell-based. On the procedure:
as §1

The target in data set [1] is T1, monoamine oxidase B (MAO-B) (Homo sapiens, UniProt P27338).
T1 construct: purchased Sigma-Aldrich
T1 sequence (P27338 1-520): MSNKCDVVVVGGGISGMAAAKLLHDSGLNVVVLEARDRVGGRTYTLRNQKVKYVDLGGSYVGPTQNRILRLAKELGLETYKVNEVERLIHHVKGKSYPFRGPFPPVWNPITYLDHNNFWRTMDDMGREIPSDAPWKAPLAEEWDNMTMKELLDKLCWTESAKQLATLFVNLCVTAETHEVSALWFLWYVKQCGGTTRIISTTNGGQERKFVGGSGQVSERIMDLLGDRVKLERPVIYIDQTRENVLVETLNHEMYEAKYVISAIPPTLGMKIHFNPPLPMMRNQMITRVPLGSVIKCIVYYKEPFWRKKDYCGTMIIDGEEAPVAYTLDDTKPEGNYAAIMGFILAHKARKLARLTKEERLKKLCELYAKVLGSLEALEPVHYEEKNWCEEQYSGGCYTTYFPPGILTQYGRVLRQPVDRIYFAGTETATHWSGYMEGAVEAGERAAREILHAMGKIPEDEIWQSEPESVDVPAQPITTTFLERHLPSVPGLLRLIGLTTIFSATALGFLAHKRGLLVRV
Put plainly: Monoamine oxidase inhibition test (MAO-Glo assay kit). Format: biochemical. The note with it: room temperature, 1 hour.
Method: (§2) To the reaction liquid was added 50 μL of a luciferin detection reagent, and the mixture was subjected to a reaction at room temperature for 20 minutes.

The target in data set [2] is T2, monoamine oxidase A (MAO-A) (Homo sapiens, UniProt P21397).
T2 construct: purchased Sigma-Aldrich
T2 sequence (P21397 1-527): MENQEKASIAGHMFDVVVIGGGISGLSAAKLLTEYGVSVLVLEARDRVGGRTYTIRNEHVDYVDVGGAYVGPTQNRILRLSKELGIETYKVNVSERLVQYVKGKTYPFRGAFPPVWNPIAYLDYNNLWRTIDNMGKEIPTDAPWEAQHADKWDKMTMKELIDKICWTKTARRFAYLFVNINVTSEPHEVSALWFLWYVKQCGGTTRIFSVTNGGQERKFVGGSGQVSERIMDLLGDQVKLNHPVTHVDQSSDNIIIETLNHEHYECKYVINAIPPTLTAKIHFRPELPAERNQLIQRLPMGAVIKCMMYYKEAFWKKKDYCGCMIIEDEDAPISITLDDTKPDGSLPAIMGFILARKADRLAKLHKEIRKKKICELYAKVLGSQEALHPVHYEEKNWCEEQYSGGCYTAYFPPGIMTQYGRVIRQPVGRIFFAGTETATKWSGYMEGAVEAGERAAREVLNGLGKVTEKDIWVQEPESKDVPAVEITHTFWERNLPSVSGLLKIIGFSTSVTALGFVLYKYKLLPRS
Described as above. In kind it is biochemical. Particulars: room temperature, 1 hour.
Method: as §2

As for `O=C(N[C@@H](CCCCNC1CC1c1ccccc1)C(=O)NCc1ccc(Cl)cc1)c1ccc(-c2ccccc2)cc1` (stereo partly drawn) [Example 20, 2-[N-(4-Phenylbenzenecarbonyl)]amino-6-(trans-2-phenylcyclopropan-1-amino)-N-(4-chlorobenzyl)hexanamide Hydrochloride], the concentration for 50% growth inhibition (GI50) amounted to 4 µM in the data set on HeLa cells and 1.4 µM in the data set on SH-SY5Y cells. The concentration for half-maximal inhibition (IC50) in data set [1] and in data set [2] was over 100 µM throughout.

Consider `O=C(N[C@@H](CCCCNC1CC1c1ccccc1)C(=O)NCc1cccc(C(F)(F)F)c1)c1ccc(-c2ccccc2)cc1` (stereo partly drawn) (as salt: hydrochloride) [Example 19, 2-[N-(4-Phenylbenzenecarbonyl)]amino-6-(trans-2-phenylcyclopropan-1-amino)-N-(3-trifluoromethylbenzyl)hexanamide Hydrochloride], for which the melting point is 129 to 130 °C.

Take `CC(C)(C)c1ccc(C(=O)N[C@@H](CCCCNC2CC2c2ccccc2)C(=O)NCc2ccccc2)cc1` (stereo partly drawn) (as salt: hydrochloride) [Example 5, 2-[N-(4-tert-Butylbenzenecarbonyl)]amino-6-(trans-2-phenylcyclopropan-1-amino)-N-benzylhexanamide Hydrochloride]: the melting point was 101 to 103 °C.
